Read-outs that look alike come from different tables or passages of the source.
Experiments:
[1] = system: IL-2 stimulated pSTAT5 in Tall-1 T cells; assay: Cellular JAK3 potency assay: inhibition of IL-2 stimulated pSTAT5 in Tall-1 T cells; format: cell-based, human; settings: for IC50: Homo sapiens, read-out: Tall-1 (pIC50) (converted); for Tall-1 (pIC50): IL-2 stimulated pSTAT5 in Tall-1 T cells
Method: The potency of test compounds for inhibition of interleukin-2 (IL-2) stimulated STAT5 phosphorylation was measured in the Tall-1 human T cell line (DSMZ) using AlphaLisa. Because IL-2 signals through JAK3, this assay provides a measure of JAK3 cellular potency.
Compounds were serially diluted in DMSO and dispensed acoustically to empty wells. Assay media (phenol red-free DMEM (Life Technologies) supplemented with 10% FBS (ATCC)) was dispensed (4 μL/well) and plates shaken at 900 rpm for 10 mins. Cells were seeded at 45,000 cells/well in assay media (4 μL/well), and incubated at 37° C., 5% CO2 for 1 hour, followed by the addition of IL-2 (R&D Systems; final concentration 300 ng/ml) in pre-warmed assay media (4 μL) for 30 minutes. After cytokine stimulation, cells were lysed with 6 ul of 3× AlphaLisa Lysis Buffer (PerkinElmer) containing 1× PhosStop and Complete tablets (Roche). The lysate was shaken at 900 rpm for 10 minutes at room temperature (RT). Phosphorylated STAT5 was measured via the pSTAT5 AlphaLisa kit (PerkinElmer). Freshly prepared acceptor bead mixture was dispensed onto lysate (5 μL) under green filtered <100 lux light. Plates were shaken at 900 rpm for 2 mins, briefly spun down, and incubated for 2 hrs at RT in the dark. Donor beads were dispensed (5 μL) under green filtered <100 lux light. Plates were shaken at 900 rpm for 2 minutes, briefly spun down, and incubated overnight at RT in the dark.
To determine the inhibitory potency of test compounds in response to IL-2, the average emission intensity of beads bound to pSTAT5 was measured in a human T cell line. IC50 values were determined from analysis of the inhibition curves of signal intensity versus compound concentration. Data are expressed as pIC50 (negative decadic logarithm IC50) values (mean±standard deviation).

JAK3 = biological target: T1, JAK3 (Homo sapiens, UniProt P52333); assay: Biochemical JAK3 kinase assay (LanthaScreen); design: GST; purchased Life Technologies; settings: for Ki: read-out: JAK 3 (pKi) (converted)
T1 sequence (P52333 1-1124): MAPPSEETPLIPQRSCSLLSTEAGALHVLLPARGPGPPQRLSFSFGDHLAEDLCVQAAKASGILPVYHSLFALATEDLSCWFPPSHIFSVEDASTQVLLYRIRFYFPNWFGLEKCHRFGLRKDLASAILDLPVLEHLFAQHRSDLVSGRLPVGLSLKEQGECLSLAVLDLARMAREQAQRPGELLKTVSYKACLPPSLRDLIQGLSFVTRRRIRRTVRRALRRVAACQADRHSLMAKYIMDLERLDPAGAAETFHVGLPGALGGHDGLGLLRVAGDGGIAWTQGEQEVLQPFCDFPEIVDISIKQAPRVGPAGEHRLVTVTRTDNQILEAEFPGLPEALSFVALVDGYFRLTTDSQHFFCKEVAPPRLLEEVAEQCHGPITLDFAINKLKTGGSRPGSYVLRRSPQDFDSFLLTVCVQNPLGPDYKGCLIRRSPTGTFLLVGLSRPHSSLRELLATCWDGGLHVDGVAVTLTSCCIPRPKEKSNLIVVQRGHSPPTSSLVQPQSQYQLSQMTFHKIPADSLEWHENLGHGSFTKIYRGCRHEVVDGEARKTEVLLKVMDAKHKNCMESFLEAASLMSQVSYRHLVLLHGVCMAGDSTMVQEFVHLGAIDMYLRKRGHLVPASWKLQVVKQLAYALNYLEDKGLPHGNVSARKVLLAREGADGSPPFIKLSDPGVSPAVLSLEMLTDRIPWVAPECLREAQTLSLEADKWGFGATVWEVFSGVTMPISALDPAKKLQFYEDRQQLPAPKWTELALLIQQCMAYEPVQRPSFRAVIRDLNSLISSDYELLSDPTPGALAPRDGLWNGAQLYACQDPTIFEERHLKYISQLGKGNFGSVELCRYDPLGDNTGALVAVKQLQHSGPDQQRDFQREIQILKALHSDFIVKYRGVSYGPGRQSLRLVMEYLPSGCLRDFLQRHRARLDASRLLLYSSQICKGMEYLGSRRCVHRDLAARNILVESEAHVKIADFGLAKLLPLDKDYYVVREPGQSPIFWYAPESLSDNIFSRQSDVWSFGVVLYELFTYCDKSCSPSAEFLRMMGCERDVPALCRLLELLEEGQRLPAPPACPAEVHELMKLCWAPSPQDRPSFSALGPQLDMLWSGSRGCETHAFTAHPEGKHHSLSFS
Method: (§1) A panel of four LanthaScreen JAK biochemical assays (JAK1, 2, 3 and Tyk2) were carried in a common kinase reaction buffer (50 mM HEPES, pH 7.5, 0.01% Brij-35, 10 mM MgCl2, and 1 mM EGTA). Recombinant GST-tagged JAK enzymes and a GFP-tagged STAT1 peptide substrate were obtained from Life Technologies.
(§2) Serially or discretely diluted compounds were pre-incubated with each of the four JAK enzymes and the substrate in white 384-well microplates (Corning) at ambient temperature for 1 h. ATP was subsequently added to initiate the kinase reactions in 10 μL total volume, with 1% DMSO. […] Kinase reactions were allowed to proceed for 1 hour at ambient temperature before a 10 μL preparation of EDTA (10 mM final concentration) and Tb-anti-pSTAT1 (pTyr701) antibody (Life Technologies, 2 nM final concentration) in TR-FRET dilution buffer (Life Technologies) was added. The plates were allowed to incubate at ambient temperature for 1 h before being read on the EnVision reader (Perkin Elmer). Emission ratio signals (520 nm/495 nm) were recorded and utilized to calculate the percent inhibition values based on DMSO and background controls.
(§3) For dose-response analysis, percent inhibition data were plotted vs. compound concentrations, and IC50 values were determined from a 4-parameter robust fit model with the Prism software (GraphPad Software). Results were expressed as pIC50 (negative logarithm of IC50) and subsequently converted to pKi (negative logarithm of dissociation constant, Ki) using the Cheng-Prusoff equation.

JAK1 = biological target: T2, JAK1 (Homo sapiens, UniProt P23458); assay: Biochemical JAK1 kinase assay (LanthaScreen); settings: for Ki: read-out: JAK 1 (pKi) (converted)
T2 construct: GST; purchased Life Technologies
T2 sequence (P23458 whole entry): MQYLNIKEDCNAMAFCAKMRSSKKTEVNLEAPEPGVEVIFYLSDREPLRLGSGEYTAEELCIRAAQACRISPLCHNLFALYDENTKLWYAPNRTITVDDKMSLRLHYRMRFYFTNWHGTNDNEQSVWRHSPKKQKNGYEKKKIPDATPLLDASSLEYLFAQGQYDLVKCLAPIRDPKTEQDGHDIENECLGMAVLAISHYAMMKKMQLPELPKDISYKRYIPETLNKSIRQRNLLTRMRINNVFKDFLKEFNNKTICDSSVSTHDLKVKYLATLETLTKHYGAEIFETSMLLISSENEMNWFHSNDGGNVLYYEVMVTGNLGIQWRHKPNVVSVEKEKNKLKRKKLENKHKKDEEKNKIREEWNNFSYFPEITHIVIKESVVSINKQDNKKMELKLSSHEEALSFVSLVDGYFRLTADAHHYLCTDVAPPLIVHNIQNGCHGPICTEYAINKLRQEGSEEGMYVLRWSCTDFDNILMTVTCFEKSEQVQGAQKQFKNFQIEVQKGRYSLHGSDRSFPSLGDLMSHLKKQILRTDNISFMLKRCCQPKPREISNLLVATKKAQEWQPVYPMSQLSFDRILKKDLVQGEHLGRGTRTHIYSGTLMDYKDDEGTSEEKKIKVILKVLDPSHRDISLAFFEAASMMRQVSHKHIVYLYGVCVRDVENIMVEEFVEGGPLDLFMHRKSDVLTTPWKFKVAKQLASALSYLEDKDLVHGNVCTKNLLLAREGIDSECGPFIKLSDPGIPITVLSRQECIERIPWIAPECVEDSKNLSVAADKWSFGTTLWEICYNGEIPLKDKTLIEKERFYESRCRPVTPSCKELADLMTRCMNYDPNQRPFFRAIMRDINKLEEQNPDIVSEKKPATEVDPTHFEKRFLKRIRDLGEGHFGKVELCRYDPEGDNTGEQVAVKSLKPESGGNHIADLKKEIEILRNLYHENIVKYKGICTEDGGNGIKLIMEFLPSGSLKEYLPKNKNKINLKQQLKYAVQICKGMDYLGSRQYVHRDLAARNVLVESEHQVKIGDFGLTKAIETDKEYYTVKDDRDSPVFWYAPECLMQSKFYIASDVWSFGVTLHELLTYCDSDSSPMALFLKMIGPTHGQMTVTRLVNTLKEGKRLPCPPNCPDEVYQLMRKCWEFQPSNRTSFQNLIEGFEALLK
Method: as §1, §2, §3

[2] = TALL-1, IL-2 stimulated pSTAT5 in Tall-1 T cells
[3] = selectivity: difference of pKi JAK3 and pKi JAK1

Row | SMILES | IC50 [1, 2] | Ki (JAK3) | JAK3 (pKi)-JAK1 (pKi) (JAK3; [3]) | Ki (JAK1) | Tall-1 (pIC50) [1] | JAK 3 (pKi) (JAK3) | JAK 1 (pKi) (JAK1) | IC50 ([1]; TALL-1, IL-2 stimulated pSTAT5, Tall-1 T cells) | JAK3 (pKi)-JAK1 (pKi) (JAK3; selectivity JAK3 over JAK1, difference of pKi)
1 | CN(C)C/C=C/C(=O)N1CC[C@H](Oc2nc(-c3ccc(O)c(F)c3)cc3[nH]ncc23)C1 [Compound 1-28] | 200 to 1000 nM | 0.1 to 1 nM | B (a value of 2.3 to 3) | > 100 nM |  |  |  |  | 
2 | C=CC(=O)N1CC[C@H](Oc2cc(-c3cc(F)c(O)cc3F)cc3[nH]nc(C)c23)C1 [Compound 1-30] | 31.6 to 200 nM | < 0.1 nM | B (a value of 2.3 to 3) | 10 to 100 nM |  |  |  |  | 
3 | C=CC(=O)N1CC[C@H](Oc2cc(-c3ccc(O)c(Cl)c3)nc3[nH]nc(C)c23)C1 [Compound 1-32] | 200 to 1000 nM | 0.1 to 1 nM | A (a value of 3 or above) | > 100 nM |  |  |  |  | 
4 | C=CC(=O)N1CC[C@H](Oc2nc(-c3ccc(O)c(Cl)c3)cc3[nH]nc(C)c23)C1 [Compound 1-35] | < 31.6 nM | < 0.1 nM | A (a value of 3 or above) | 10 to 100 nM |  |  |  |  | 
5 | C=CC(=O)N1CC[C@H](Oc2nc(-c3ccc(O)c(Cl)c3)nc3[nH]nc(C)c23)C1 [Compound 1-37] | 200 to 1000 nM | 0.1 to 1 nM | A (a value of 3 or above) | > 100 nM |  |  |  |  | 
6 | C=CC(=O)N1CC[C@H](Oc2cc(-c3ccc(O)cc3)cc3[nH]nc(SC)c23)C1 [Compound 1-39] | 31.6 to 200 nM | 0.1 to 1 nM | A (a value of 3 or above) | > 100 nM |  |  |  |  | 
7 | C=CC(=O)N1CC[C@H](Oc2cc(-c3ccc(O)cc3)cc3[nH]nc(N(C)C)c23)C1 [Compound 1-42] | 200 to 1000 nM | 0.1 to 1 nM | A (a value of 3 or above) | > 100 nM |  |  |  |  | 
8 | C=CC(=O)N1CC[C@H](Oc2cc(-c3ccc(O)cc3)cc3[nH]nc(C(F)(F)F)c23)C1 [Compound 1-43] | < 31.6 nM | < 0.1 nM | A (a value of 3 or above) | > 100 nM |  |  |  |  | 
9 | CN(C)C/C=C/C(=O)N1CC[C@H](Oc2cc(-c3ccc(O)cc3)cc3[nH]nc(Cl)c23)C1 [Compound 1-48] |  |  | B (a value of 2.3 to 3) |  | B (a pIC50 value between 6.7 (included) and 7.5 (IC50 between 200 nM and 32 nM)) | C (a pKi value between 8 and 9 (Ki between 10 nM and 1 nM)) | E (a pKi value of 7 or below (Ki of 100 nM or above)) |  | 
10 | CN(C)C/C=C/C(=O)N1CC[C@H](COc2cc(-c3ccc(O)cc3)cc3[nH]ncc23)C1 [Compound 2-1] |  |  | B (a value of 2.3 to 3) |  | C (a pIC50 value between 6 and 6.7 (IC50 between 1 μM and 200 nM)) | A (a pKi value≥10 (Ki≤0.1 nM)) | D (a pKi value between 7 and 8 (Ki between 100 nM and 10 nM)) |  | 
11 | CN(C)C/C=C/C(=O)N1CCC(C)(Oc2cc(-c3ccc(O)cc3)cc3[nH]ncc23)CC1 [Compound 6-9] |  |  |  |  |  |  |  | 31.6 to 200 nM | A (a value of 3 or above)

Reference: patent publication US10392368B2, “Pyrazolo and triazolo bicyclic compounds as JAK kinase inhibitors” (THERAVANCE BIOPHARMA R&D IP, LLC, priority 2017, dated 2019)
